Data: ChEMBL document CHEMBL5661955, “ASAP - In vitro cytotoxicity” (2024)
“And” between values parts separate entries of the source, which are not always exact repeats. Equal entries are not always repeated.

Legend:
[1] = (§1) Functional assay to measure dose dependent changes in cell viability from drug treatment in Vero E6 miRFP670 cells that are infected with Dengue virus type 2 New Guinea C. Cells are treated with antiviral candidates that have been serially diluted. Cytotoxicity is reported via via analysis of DAPI count using high-content imager. The assay has been performed by KU Leuven.; type: toxicity, cell-based, Vero C1008; details: chlorocebus sabaeus
[2] = (§2) Functional CPE-based assay to measure dose dependent changes in cell viability from drug treatment in Vero E6 miRFP670 cells. Cells are treated with antiviral candidates that have been serially diluted. Cytotoxicity is reported via analysis of MTS assays in uninfected cells. The assay has been performed by KU Leuven.; type: toxicity, Vero C1008; details: chlorocebus sabaeus
[3] = as §2, with “miRFP670 cells (cotreated with P-gp inhibitor, CP100356).” for “miRFP670 cells.”; type: toxicity, Vero C1008; details: chlorocebus sabaeus, Vero E6 miRFP670 cells, with CP100356 (P-gp inhibitor, concentration not stated); p-gp concentration 100 nM
[4] = as §1, with “cells (cotreated with P-gp inhibitor, CP100356)” for “cells”, “Cells are treated with antiviral candidates that have been serially diluted.” left out; type: toxicity, cell-based, Vero C1008; details: chlorocebus sabaeus
[5] = Functional metabolic assay to measure dose dependent changes in cell viability from drug treatment in Vero E6/TMPRSS2 cells (cotreated with P-gp inhibitor, Elacridar). […] Cytotoxicity is reported via measuring absorbance and analysis of MTT/MTS assays in uninfected cells. The assay has been performed by Icahn School of Medicine at Mount Sinai.; type: toxicity, cell-based, VeroE6/TMPRSS2; details: chlorocebus sabaeus, p-gp concentration 2 uM
[6] = as §2, with “metabolic” for “CPE-based”, “HeLa” for “Vero E6 miRFP670”, “MTT/MTS” for “MTS”; type: toxicity, cell-based; details: human
[7] = Functional metabolic assay to measure dose dependent changes in cell viability from drug treatment in Vero E6/TMPRSS2 cells. Cells are treated with antiviral candidates that have been serially diluted. Cytotoxicity is reported via measuring absorbance and analysis of MTT/MTS assays in uninfected cells. The assay has been performed by Icahn School of Medicine at Mount Sinai.; type: toxicity, cell-based, VeroE6/TMPRSS2; details: chlorocebus sabaeus
[8] = as §2, with “Huh-7” for “Vero E6 miRFP670”, “of MTT/” for “of”, “National Institute of Allergy and Infectious Diseases.” for “KU Leuven.”; type: toxicity; details: human
[9] = Vero E6/TMPRSS2 cells, with Elacridar (P-gp inhibitor, concentration not stated)

| Structure (SMILES) | CC50 [1] [µM] | CC50 ([2]; Vero E6 miRFP670 cells) [µM] | CC50 ([2]; vero c1008) | CC50 [3] [µM] | CC50 ([4]; vero c1008, p-gp concentration 100 nM) [µM] | CC50 [5, 9] [µM] | CC10 ([5]; veroe6/tmprss2) [µM] | CC50 ([6]; HeLa cells) [µM] | CC10 ([6]; hela) [µM] | CC50 ([7]; Vero E6/TMPRSS2 cells) [µM] | CC10 ([7]; veroe6/tmprss2) [µM] | CC50 [8] [µM] | CC50 ([4]; vero c1008, p-gp concentration 500 nM) [µM] | CC50 ([4]; with CP100356 (P-gp inhibitor, concentration not stated), p-gp concentration 500 nM) [µM] | CC50 ([5]; veroe6/tmprss2) [µM] |
| --- | --- | --- | --- | --- | --- | --- | --- | --- | --- | --- | --- | --- | --- | --- | --- |
| O=C(Nc1ccc2c(c1)CNC2)c1cc(Cl)cc2[nH]ncc12 | 6.72 | 49.7 | > 50 µM | > 50 | 5.47 | < 0.023 | > 50 | – | – | – | – | – | – | – | – |
| O=C(Nc1ccc2c(c1)CNC2)c1ccnc2[nH]ccc12 | – | – | – | – | – | – | – | > 50 | > 50 | – | – | – | – | – | – |
| CC(C)CNC(=O)c1cc(Cl)c(F)cc1NS(=O)(=O)c1ccc(Oc2ccccc2Cl)cc1 | – | 4.96 | 5.79 µM and 3.21 µM | – | – | 49.4 | – | – | – | > 50 | > 50 | 3.1 | 5.35 | > 10 | 38.1 |
